Results reported in PubChem BioAssay (NCI).
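In this assay, cells in 96-well plates receive the compound at five concentrations for 48 hours. Endpoints are linearly interpolated between the surrounding concentrations. GI50 is the concentration that inhibits growth by half. TGI is the concentration that stops growth completely.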

Experiments:
Assay in all cases: inhibition of tumour cell growth, NCI panel, 48 h
[1] = system: U251 CNS
[2] = system: NCI-H23 lung
[3] = system: KM12 colon
[4] = system: DU-145 prostate
[5] = system: K-562 leukemia
[6] = system: SK-MEL-2 melanoma
[7] = system: COLO 205 colon
[8] = system: MALME-3M melanoma
[9] = system: OVCAR-3 ovarian
[10] = system: RPMI-8226 leukemia
[11] = system: OVCAR-4 ovarian
[12] = system: OVCAR-5 ovarian
[13] = system: SK-MEL-28 melanoma
[14] = system: MOLT-4 leukemia
[15] = system: MDA-MB-435
[16] = system: A549 NSCLC
[17] = system: PC-3 prostate
[18] = system: A498 renal
[19] = system: UO-31 renal
[20] = system: SF-268 CNS
[21] = system: SNB-19 CNS
[22] = system: HCC-2998 colon
[23] = system: SK-MEL-5 melanoma
[24] = system: SF-539 CNS
[25] = system: HL-60(TB) leukemia
[26] = system: M14 melanoma
[27] = system: MDA-MB-231 breast
[28] = system: UACC-62 melanoma
[29] = system: HOP-92 NSCLC
[30] = system: ACHN renal
[31] = system: MDA-MB-468 breast
[32] = system: NCI/ADR-RES ovarian
[33] = system: HCT-116 colon
[34] = system: EKVX NSCLC
[35] = system: SW-620 colon
[36] = system: HOP-62 NSCLC
[37] = system: SF-295 CNS
[38] = system: MCF7 breast
[39] = system: SK-OV-3 ovarian
[40] = system: IGROV1 ovarian
[41] = system: BT-549 breast
[42] = system: HT29 colon
[43] = system: CCRF-CEM leukemia
[44] = system: OVCAR-8 ovarian
[45] = system: UACC-257 melanoma
[46] = system: TK-10 renal
[47] = system: NCI-H522 lung
[48] = system: RXF 393 renal
[49] = system: CAKI-1 renal
[50] = system: 786-0 renal
[51] = system: HCT-15 colon
[52] = system: NCI-H460 lung
[53] = system: T-47D breast
[54] = system: SR leukemia
[55] = system: SN12C renal
[56] = system: LOX IMVI melanoma
[57] = system: NCI-H226 lung
[58] = system: HS 578T breast

Q: For `COc1ccc(C(=O)/C=C/c2cccc3ccccc23)cc1S(N)(=O)=O`, which GI50 [1] is on record?
A: 1.5 µM

Q: And the TGI [1]?
A: 3.02 µM

Q: And the GI50 [2]?
A: 2.21 µM

Q: And the TGI [2]?
A: 5.64 µM

Q: And the GI50 [3]?
A: 1.46 µM

Q: What about the TGI [3] of the same compound?
A: 3.57 µM

Q: And the GI50 [4]?
A: 2.85 µM

Q: What about the TGI [4] of the same compound?
A: 10.8 µM

Q: And the GI50 [5]?
A: 1.69 µM

Q: What about the TGI [5] of the same compound?
A: 7.54 µM

Q: And the GI50 [6]?
A: 4.99 µM

Q: And the TGI [6]?
A: 17.8 µM

Q: What about the GI50 [7] of the same compound?
A: 1.67 µM

Q: What about the TGI [7] of the same compound?
A: 3.24 µM

Q: What about the GI50 [8] of the same compound?
A: 1.83 µM

Q: And the TGI [8]?
A: 4.2 µM

Q: What about the GI50 [9] of the same compound?
A: 1.8 µM

Q: What about the TGI [9] of the same compound?
A: 4.38 µM

Q: What about the GI50 [10] of the same compound?
A: 1.59 µM

Q: What about the TGI [10] of the same compound?
A: 5.34 µM

Q: What about the GI50 [11] of the same compound?
A: 2.87 µM

Q: And the TGI [11]?
A: 11.3 µM

Q: And the GI50 [12]?
A: 1.84 µM

Q: And the TGI [12]?
A: 4.4 µM

Q: And the GI50 [13]?
A: 1.85 µM

Q: And the TGI [13]?
A: 3.64 µM

Q: What about the GI50 [14] of the same compound?
A: 2.3 µM

Q: What about the TGI [14] of the same compound?
A: 6.39 µM

Q: What about the GI50 [15] of the same compound?
A: 2.23 µM

Q: And the TGI [15]?
A: 7.5 µM

Q: And the GI50 [16]?
A: 2.66 µM

Q: And the TGI [16]?
A: 9.65 µM

Q: And the GI50 [17]?
A: 2.31 µM

Q: What about the TGI [17] of the same compound?
A: 6.64 µM

Q: What about the GI50 [18] of the same compound?
A: 13.2 µM

Q: And the TGI [18]?
A: 26.2 µM

Q: And the GI50 [19]?
A: 1.48 µM

Q: What about the TGI [19] of the same compound?
A: 3.19 µM

Q: And the GI50 [20]?
A: 3.04 µM

Q: And the TGI [20]?
A: 11.1 µM

Q: And the GI50 [21]?
A: 3.45 µM

Q: And the TGI [21]?
A: 13.7 µM

Q: What about the GI50 [22] of the same compound?
A: 1.75 µM

Q: And the TGI [22]?
A: 3.24 µM

Q: What about the GI50 [23] of the same compound?
A: 2.53 µM

Q: What about the TGI [23] of the same compound?
A: 7.71 µM

Q: And the GI50 [24]?
A: 1.64 µM

Q: And the TGI [24]?
A: 3.06 µM

Q: And the GI50 [25]?
A: 1.36 µM

Q: What about the TGI [25] of the same compound?
A: 5.81 µM

Q: And the GI50 [26]?
A: 2.03 µM

Q: What about the TGI [26] of the same compound?
A: 5.68 µM

Q: And the GI50 [27]?
A: 2.38 µM

Q: And the TGI [27]?
A: 6.49 µM

Q: And the GI50 [28]?
A: 1.53 µM

Q: And the TGI [28]?
A: 3 µM

Q: What about the GI50 [29] of the same compound?
A: 2.14 µM

Q: And the TGI [29]?
A: 9.53 µM

Q: And the GI50 [30]?
A: 1.89 µM

Q: What about the TGI [30] of the same compound?
A: 3.92 µM

Q: What about the GI50 [31] of the same compound?
A: 1.53 µM

Q: And the TGI [31]?
A: 3.11 µM

Q: And the GI50 [32]?
A: 2.2 µM

Q: And the TGI [32]?
A: 6.4 µM

Q: What about the GI50 [33] of the same compound?
A: 1.33 µM

Q: What about the TGI [33] of the same compound?
A: 2.93 µM

Q: What about the GI50 [34] of the same compound?
A: 3.55 µM

Q: And the TGI [34]?
A: 13.5 µM

Q: What about the GI50 [35] of the same compound?
A: 1.62 µM

Q: And the TGI [35]?
A: 3.46 µM

Q: What about the GI50 [36] of the same compound?
A: 2.03 µM

Q: And the TGI [36]?
A: 5.66 µM

Q: And the GI50 [37]?
A: 2.38 µM

Q: What about the TGI [37] of the same compound?
A: 7.74 µM

Q: What about the GI50 [38] of the same compound?
A: 2.14 µM

Q: What about the TGI [38] of the same compound?
A: 8.58 µM

Q: What about the GI50 [39] of the same compound?
A: 3.72 µM

Q: What about the TGI [39] of the same compound?
A: 15.4 µM

Q: And the GI50 [40]?
A: 2.3 µM

Q: What about the TGI [40] of the same compound?
A: 7.12 µM

Q: What about the GI50 [41] of the same compound?
A: 1.77 µM

Q: And the TGI [41]?
A: 3.63 µM

Q: And the GI50 [42]?
A: 1.74 µM

Q: And the TGI [42]?
A: 3.92 µM

Q: And the GI50 [43]?
A: 2.54 µM

Q: What about the TGI [43] of the same compound?
A: 6.95 µM

Q: What about the GI50 [44] of the same compound?
A: 2.39 µM

Q: And the TGI [44]?
A: 10.1 µM

Q: And the GI50 [45]?
A: 3.05 µM

Q: What about the TGI [45] of the same compound?
A: 12.3 µM

Q: What about the GI50 [46] of the same compound?
A: 2.89 µM

Q: What about the TGI [46] of the same compound?
A: 10.2 µM

Q: What about the GI50 [47] of the same compound?
A: 1.61 µM

Q: What about the TGI [47] of the same compound?
A: 3.2 µM

Q: What about the GI50 [48] of the same compound?
A: 1.57 µM

Q: What about the TGI [48] of the same compound?
A: 3.24 µM

Q: And the GI50 [49]?
A: 2.42 µM

Q: And the TGI [49]?
A: 10.6 µM

Q: And the GI50 [50]?
A: 1.86 µM

Q: And the TGI [50]?
A: 3.87 µM

Q: What about the GI50 [51] of the same compound?
A: 1.23 µM

Q: What about the TGI [51] of the same compound?
A: 3.2 µM

Q: And the GI50 [52]?
A: 1.79 µM

Q: What about the TGI [52] of the same compound?
A: 4.16 µM

Q: What about the GI50 [53] of the same compound?
A: 3.41 µM

Q: What about the TGI [53] of the same compound?
A: 14.1 µM

Q: And the GI50 [54]?
A: 0.749 µM

Q: And the TGI [54]?
A: 5.13 µM

Q: What about the GI50 [55] of the same compound?
A: 1.6 µM

Q: What about the TGI [55] of the same compound?
A: 3.91 µM

Q: What about the GI50 [56] of the same compound?
A: 1.35 µM

Q: What about the TGI [56] of the same compound?
A: 2.63 µM

Q: What about the GI50 [57] of the same compound?
A: 3.1 µM

Q: And the TGI [57]?
A: 13.2 µM

Q: What about the GI50 [58] of the same compound?
A: 5.21 µM

Q: And the TGI [58]?
A: 26.8 µM
